Consider six molecules from article PMC11024979 (ACS Omega, 2024).

For assay [1], the target named is anti-cortisol (17) Fab fragment. As to the kind of experiment: Initial ligand screening by native MS. The assay is classed as binding, murine. The note with it: Fab 0.1 μM, ligand 100 nM to 10 μM.
Assay [2] has the same target. The note with it: read-out: KD (SPR); determined in previous work ref 9; cited from earlier work.
Assay [3] concerns anti-cortisol (17) Fab fragment. As to the kind of experiment: Native MS direct ligand titration, KD by one-site binding fit. Also on record: species or system murine. Conditions: native MS KD ratio.
For assay [4], the target named is anti-cortisol (17) Fab fragment. Description: Surface plasmon resonance. The assay is classed as binding, murine. The note with it: read-out: KD (SPR); determined in this work. On the technique in general: SPR reads the build-up and loss of mass on a sensor chip optically.

Like-named read-outs stand apart in the source and are kept apart here.

Turning to `C[C@]12CCC(=O)C=C1CC[C@@H]1[C@@H]2[C@@H](O)C[C@@]2(C)[C@H]1CC[C@]2(O)C(=O)CO` [cortisol], the “approximate KD range from initial ligand screening” value (“approximate KD range” below) in assay [1] was “nanomolar range”. Besides, the Kd (commonly a measure of binding affinity in units of concentration) in assay [2] was 7 ± 1 nM.
In the case of `C[C@]12C=CC(=O)C=C1CC[C@@H]1[C@@H]2[C@@H](O)C[C@@]2(C)[C@H]1CC[C@]2(O)C(=O)CO` [prednisolone], the “approximate KD range” value in assay [1] is on record as “nanomolar range”. In addition, the dissociation constant (Kd) in assay [2] is 13 ± 1 nM.
As for `C[C@]12CC[C@H]3[C@@H](CCC4=CC(=O)CC[C@@]43C)[C@@H]1CC[C@@H]2O` [testosterone], the Kd in assay [2] is 23000 ± 4000 nM.
Regarding `C[C@]12CCC(=O)C=C1CC[C@@H]1[C@@H]2CC[C@@]2(C)[C@H]1CC[C@]2(O)C(=O)CO` [11-deoxycortisol], the “approximate KD range” value in assay [1] is on record as “submicromolar affinity”. In addition, the “fold higher KD compared to corticosterone” value in assay [3] is on record as “more than 4 fold”. The dissociation constant Kd in assay [4] was 120 nM.
For `C[C@]12C[C@H](O)[C@H]3[C@@H](CCC4=CC(=O)CC[C@@]43C)[C@@H]1CC[C@@H]2C(=O)CO` [corticosterone], the “approximate KD range” value in assay [1] is on record as “nanomolar range”. Also, the Kd in assay [2] is 31 ± 2 nM.
Consider `CC(=O)[C@H]1CC[C@H]2[C@@H]3CCC4=CC(=O)CC[C@]4(C)[C@H]3CC[C@]12C` [progesterone], for which, in assay [2], the equilibrium dissociation constant (Kd) was 15000 ± 3000 nM.
